Data: patent publication US20240132489A1, “AROMATIC HETEROCYCLIC COMPOUND, PHARMACEUTICAL COMPOSITION, AND USE THEREOF” (GT APEIRON THERAPEUTICS LIMITED, priority 2020, published 2024)
Where a name gives a salt, the structure may show the parent alone.

Experiments:
[1] = biological target: CDK12(aa686-1082)/cyclin K complex (Homo sapiens (Human), UniProt Q9NYV4); test: In vitro enzymatic inhibitory activity test, CDK12; format: biochemical; settings: Caliper mobility shift, 180 min at 27° C.
Description: (§1) CDK7/CyclinH was diluted in a test buffer solution (20 mM MES PH6.75, 0.01% Tween20, 50 ug/mL BSA, 6 mM MgCl2) to obtain a corresponding enzyme solution with a 2.4× concentration. CDK2/CyclinE1 was diluted in a test buffer solution (20 mM MES PH6.75, 0.01% Tween20, 50 ug/mL BSA, 6 mM MgCl2) to obtain a corresponding enzyme solution with a 2.4× concentration. CDK9/CyclinT1 was diluted in a test buffer solution (20 mM MES PH6.75, 0.01% Tween20, 50 ug/mL BSA, 10 mM MgCl2) to obtain a corresponding enzyme solution with a 2.4× concentration. CDK12/CyclinK was diluted in a test buffer solution (80 mM MES PH6.5, 0.01% Tween20, 50 ug/mL BSA, 10 mM MgCl2) to obtain a corresponding enzyme solution with a 2.4× concentration. The compounds were dissolved in dimethyl sulfoxide (DMSO) at a concentration of 10 mM. […] 2 ul of a test compound solution was mixed with 5 ul of enzyme solution. After incubating for 10 min, 5 ul of the mixed solution of the polypeptide substrate and ATP was added. After incubating at 27° C. for 180 min, 4 uL of EDTA with a 120 mM concentration was added to each sample to stop the reaction. […] A CDK9/cyclin TI complex (8 nM) and a “5-FAM-CDK9tide” peptide substrate (2 μM, synthetic fluorophore labeled peptide having the following sequence: 5-FAM-GSRTPMY-NH2, where 5-FAM was as defined above, and NH2 represented C-terminal amide) were used for testing the CDK9 inhibition. […] A CDK2/cyclin E1 complex (0.5 nM) and the “5-FAM-CDK7tide” (2 μM) as defined above were used for testing the CDK2 inhibition.
(§2) Electrophoretic separation was performed on Caliper EZ Reader II by means of a fluorogenic substrate and a phosphorylated product to analyze the reaction mixture. Data were calculated by using GraphPad Prism version 6.0. IC50 values were adjusted by means of a nonlinear regression model using a dose-response curve.

HCC70 cells = test: Cell bioactivity detection (CyQuant), HCC70; format: cell-based; settings: human breast cancer cells HCC70, 72 hours
Description: (§3) Trypsinization was performed on A2780 and HCC70 cells. Cell suspensions were respectively transferred to 15 mL of centrifuge tubes and centrifuged at 800 rpm for 5 min. The supernatant was discarded. Resuspension in a fresh culture medium (RPMI 1640+10% FBS) was performed. After counting, the cells were inoculated at 2000/well in a 384-well plate (50 φL of 1640+10% FBS culture medium was added to the 2nd line and the 23rd line of the 384-well plate, and 50 μL of DPBS was added to surrounding wells). Incubation in an incubator (37° C., 5% CO2) was performed overnight.
(§4) The compound was added to the well plate the next day. The compound had the highest concentration of 10 μM and was diluted at the ratio of 1:4 to form 9 concentrations. The positive compound Paclitaxel had the highest concentration of 1 μM and was diluted at the ratio of 1:3 to form 9 concentrations. The DMSO content of each well was unified to 0.2%. A cell plate was centrifuged at 800 rpm for 30 seconds. Incubation for 72 hours in an incubator (37° C., 5% CO2) was performed. On the fourth day, a Cyquant reagent (3×) was prepared according to kit instructions. Each 384-well plate was prepared in the following proportions: DPBS: 11.568 mL, CyQuant® Direct nucleic acid stain: 72 μL, CyQuant® Direct background suppressor: 360 ILL. The plates were uniformly mixed and placed for standby application at room temperature. The cell plate was taken out and placed at room temperature to be balanced for 30 min. 25 μL of Cyquant reagent (3×) was dispensed to the cells in each well of the 384-well plates by using a Multi-drop dispenser. Incubation at 37° C. for 60 or more minutes was performed. The plates were read by Acumen (Acumen was configured to have a 488 nm excitation wavelength). IC50 results were analyzed by XLFIT5 of the IDBS company.

[2] = biological target: CDK7/cyclin H/MAT1 complex (Homo sapiens (Human), UniProt P50613); test: In vitro enzymatic inhibitory activity test, CDK7; format: biochemical; settings: Caliper mobility shift, 180 min at 27° C.
Sequence of CDK7/cyclin H/MAT1 complex (P50613 whole entry, species assumed): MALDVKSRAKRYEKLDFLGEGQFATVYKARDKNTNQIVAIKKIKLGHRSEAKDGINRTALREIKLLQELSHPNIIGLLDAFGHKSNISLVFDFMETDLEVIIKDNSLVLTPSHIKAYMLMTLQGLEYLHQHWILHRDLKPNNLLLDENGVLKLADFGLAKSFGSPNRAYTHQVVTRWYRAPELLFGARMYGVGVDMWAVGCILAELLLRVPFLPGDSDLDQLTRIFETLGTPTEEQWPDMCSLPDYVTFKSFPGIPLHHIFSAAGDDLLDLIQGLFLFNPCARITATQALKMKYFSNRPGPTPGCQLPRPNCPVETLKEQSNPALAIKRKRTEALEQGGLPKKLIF
Sequence of CDK7/cyclin H/MAT1 complex (P51946 whole entry partner, species assumed): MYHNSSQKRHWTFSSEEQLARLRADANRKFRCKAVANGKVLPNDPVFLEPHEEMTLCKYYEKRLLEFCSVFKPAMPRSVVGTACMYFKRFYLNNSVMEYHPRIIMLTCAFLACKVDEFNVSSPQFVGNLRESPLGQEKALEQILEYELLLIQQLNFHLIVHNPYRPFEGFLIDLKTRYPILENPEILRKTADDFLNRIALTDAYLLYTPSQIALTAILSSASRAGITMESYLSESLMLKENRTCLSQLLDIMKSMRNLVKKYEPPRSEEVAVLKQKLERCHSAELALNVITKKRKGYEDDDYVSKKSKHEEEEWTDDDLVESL
Sequence of CDK7/cyclin H/MAT1 complex (P51948 whole entry partner, species assumed): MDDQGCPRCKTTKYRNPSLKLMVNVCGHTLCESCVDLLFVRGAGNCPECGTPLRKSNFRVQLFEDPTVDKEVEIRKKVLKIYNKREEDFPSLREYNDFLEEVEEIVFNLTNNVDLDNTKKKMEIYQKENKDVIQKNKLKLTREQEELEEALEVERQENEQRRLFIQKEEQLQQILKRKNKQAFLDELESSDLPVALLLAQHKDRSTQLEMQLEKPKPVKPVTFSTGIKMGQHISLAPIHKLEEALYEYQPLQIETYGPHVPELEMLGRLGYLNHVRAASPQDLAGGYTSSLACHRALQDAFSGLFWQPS
Description: as §1, §2

CDK9/CyclinT1 = CDK9/CyclinT1 (Homo sapiens (Human), UniProt P50750); test: In vitro enzymatic inhibitory activity test, CDK9; format: biochemical; settings: Caliper mobility shift, 180 min at 27° C.
Sequence of CDK9/CyclinT1 (P50750 whole entry, species assumed): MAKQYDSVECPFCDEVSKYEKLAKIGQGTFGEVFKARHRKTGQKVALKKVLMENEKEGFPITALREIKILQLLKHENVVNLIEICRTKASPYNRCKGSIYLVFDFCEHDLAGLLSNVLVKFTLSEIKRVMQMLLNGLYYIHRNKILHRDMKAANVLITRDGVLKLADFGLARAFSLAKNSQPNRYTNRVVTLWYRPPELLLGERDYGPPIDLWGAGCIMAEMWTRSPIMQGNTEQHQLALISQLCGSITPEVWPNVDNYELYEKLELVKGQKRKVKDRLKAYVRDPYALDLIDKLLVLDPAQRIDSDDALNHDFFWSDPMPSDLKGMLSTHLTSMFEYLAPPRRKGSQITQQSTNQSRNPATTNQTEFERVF
Sequence of CDK9/CyclinT1 (O60563 whole entry partner, species assumed): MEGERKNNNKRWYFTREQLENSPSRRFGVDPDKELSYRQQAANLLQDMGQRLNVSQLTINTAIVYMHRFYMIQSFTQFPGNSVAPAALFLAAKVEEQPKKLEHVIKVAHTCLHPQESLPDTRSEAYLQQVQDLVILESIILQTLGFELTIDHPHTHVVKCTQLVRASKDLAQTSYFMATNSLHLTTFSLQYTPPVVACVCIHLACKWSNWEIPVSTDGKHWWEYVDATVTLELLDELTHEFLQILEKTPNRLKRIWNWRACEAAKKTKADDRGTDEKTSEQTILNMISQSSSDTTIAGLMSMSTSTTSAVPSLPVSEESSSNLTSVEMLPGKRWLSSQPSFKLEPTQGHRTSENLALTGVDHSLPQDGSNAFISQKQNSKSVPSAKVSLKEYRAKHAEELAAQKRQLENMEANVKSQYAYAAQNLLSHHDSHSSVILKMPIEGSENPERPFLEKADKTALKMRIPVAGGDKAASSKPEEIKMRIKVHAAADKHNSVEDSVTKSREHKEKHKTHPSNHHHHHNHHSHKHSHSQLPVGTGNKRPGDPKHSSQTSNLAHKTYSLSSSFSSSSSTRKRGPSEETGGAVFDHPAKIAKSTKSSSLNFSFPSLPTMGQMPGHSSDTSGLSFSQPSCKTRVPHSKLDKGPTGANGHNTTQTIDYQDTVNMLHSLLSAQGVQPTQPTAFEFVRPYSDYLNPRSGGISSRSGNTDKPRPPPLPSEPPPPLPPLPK
Description: as §1, §2

A2780 cells = test: Cell bioactivity detection (CyQuant), A2780; format: cell-based, human; settings: ovarian carcinoma cells A2780, 72 hours
Description: as §3, §4

CDK2/cyclin E1 complex = CDK2/cyclin E1 complex (Homo sapiens (Human), UniProt P24941); test: In vitro enzymatic inhibitory activity test, CDK2; format: biochemical; settings: Caliper mobility shift, 180 min at 27° C.
Description: CDK7/CyclinH was diluted in a test buffer solution (20 mM MES PH6.75, 0.01% Tween20, 50 ug/mL BSA, 6 mM MgCl2) to obtain a corresponding enzyme solution with a 2.4× concentration. CDK2/CyclinE1 was diluted in a test buffer solution (20 mM MES PH6.75, 0.01% Tween20, 50 ug/mL BSA, 6 mM MgCl2) to obtain a corresponding enzyme solution with a 2.4× concentration. CDK9/CyclinT1 was diluted in a test buffer solution (20 mM MES PH6.75, 0.01% Tween20, 50 ug/mL BSA, 10 mM MgCl2) to obtain a corresponding enzyme solution with a 2.4× concentration. CDK12/CyclinK was diluted in a test buffer solution (80 mM MES PH6.5, 0.01% Tween20, 50 ug/mL BSA, 10 mM MgCl2) to obtain a corresponding enzyme solution with a 2.4× concentration. […] 2 ul of a test compound solution was mixed with 5 ul of enzyme solution. After incubating for 10 min, 5 ul of the mixed solution of the polypeptide substrate and ATP was added. After incubating at 27° C. for 180 min, 4 uL of EDTA with a 120 mM concentration was added to each sample to stop the reaction. […] A CDK9/cyclin TI complex (8 nM) and a “5-FAM-CDK9tide” peptide substrate (2 μM, synthetic fluorophore labeled peptide having the following sequence: 5-FAM-GSRTPMY-NH2, where 5-FAM was as defined above, and NH2 represented C-terminal amide) were used for testing the CDK9 inhibition. […] A CDK2/cyclin E1 complex (0.5 nM) and the “5-FAM-CDK7tide” (2 μM) as defined above were used for testing the CDK2 inhibition.
as §2

Sequence of CDK12(aa686-1082)/cyclin K complex (Q9NYV4 686-1082, species assumed): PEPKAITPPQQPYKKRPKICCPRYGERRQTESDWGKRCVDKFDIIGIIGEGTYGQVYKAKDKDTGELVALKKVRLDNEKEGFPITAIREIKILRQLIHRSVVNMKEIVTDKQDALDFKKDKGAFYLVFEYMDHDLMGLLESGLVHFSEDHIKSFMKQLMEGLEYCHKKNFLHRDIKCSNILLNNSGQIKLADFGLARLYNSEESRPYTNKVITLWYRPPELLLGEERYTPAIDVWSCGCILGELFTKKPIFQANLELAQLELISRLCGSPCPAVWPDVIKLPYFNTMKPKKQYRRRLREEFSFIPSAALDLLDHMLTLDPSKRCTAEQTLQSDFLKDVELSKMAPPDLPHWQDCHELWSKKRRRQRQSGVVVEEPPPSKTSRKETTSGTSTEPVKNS
Sequence of CDK12(aa686-1082)/cyclin K complex (O75909 whole entry partner, species assumed, the tested form may be a part): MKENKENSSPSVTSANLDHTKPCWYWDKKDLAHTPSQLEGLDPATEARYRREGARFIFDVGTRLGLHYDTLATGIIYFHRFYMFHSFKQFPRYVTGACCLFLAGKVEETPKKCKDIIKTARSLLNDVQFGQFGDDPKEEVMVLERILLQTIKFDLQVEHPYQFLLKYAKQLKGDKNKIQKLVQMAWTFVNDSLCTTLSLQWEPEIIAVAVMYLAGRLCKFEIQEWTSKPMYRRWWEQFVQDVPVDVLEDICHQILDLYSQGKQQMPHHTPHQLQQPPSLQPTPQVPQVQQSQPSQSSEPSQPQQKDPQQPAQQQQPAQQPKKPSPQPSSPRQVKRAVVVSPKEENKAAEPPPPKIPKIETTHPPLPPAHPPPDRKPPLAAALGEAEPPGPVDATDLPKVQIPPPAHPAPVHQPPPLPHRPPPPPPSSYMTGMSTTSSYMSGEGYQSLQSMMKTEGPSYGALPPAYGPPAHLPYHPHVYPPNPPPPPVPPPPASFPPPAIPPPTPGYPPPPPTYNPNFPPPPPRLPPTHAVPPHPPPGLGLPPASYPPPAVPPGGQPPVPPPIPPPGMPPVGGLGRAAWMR

Structure (SMILES) | IC50 [1] [nM] | IC50 (HCC70 cells; Homo sapiens, HCC70, 72 h) [nM] | IC50 [2] [nM] | IC50 (CDK9/CyclinT1) [nM] | IC50 (A2780 cells; Homo sapiens, A2780, 72 h) [nM] | IC50 (CDK2/cyclin E1 complex) [nM] | IC50 (HCC70 cells) [nM] | IC50 (A2780 cells) [nM]
FC(F)(F)c1cnc(N[C@H]2CCCNC2)nc1-c1c[nH]c2nc(C3=CCOCC3)ccc12 [Compound 27, (S)-4-(6-(3,6-dihydro-2H-pyran-4-yl)-1H-pyrrolo[2,3-b]pyridin-3-yl)-N-(piperidin-3-yl)-5-(trifluoromethyl)pyrimidine-2-amine] | 418 | 30 | 2.17 | 1500 | 5.1 | 1120 | – | –
FC(F)(F)c1cnc(N[C@H]2CCCNC2)nc1-c1c[nH]c2nc(N3C4COCC3C4)ccc12 [Compound 103, 4-(6-(3-oxo-6-azabicyclo[3.1.1]heptan-6-yl)-1H-pyrrol[2,3-b]pyridin-3-yl)-N—((S)-piperidin-3-yl)-5-(trifluoromethyl)pyrimidine-2-amine formate] | 1390 | 22.3 | 7.26 | 3680 | 18.2 | 2830 | – | –
FC(F)(F)c1cnc(N[C@@H]2CN3CCC2CC3)nc1-c1c[nH]c2nc(N3CCOCC3)ccc12 [Compound 44, (S)—N-(4-(6-morpholinyl-1H-pyrrol[2,3-b]pyridin-3-yl)-5-(trifluoromethyl)pyrimidin-2-yl)quinine-3-amine formate] | 4460 | 684 | 131 | 3650 | 253 | > 10000 | – | –
CC1(O)CCN(c2ccc3c(-c4nc(N[C@H]5CCCNC5)ncc4C(F)(F)F)c[nH]c3n2)CC1 [Compound 23, (S)-4-methyl-1-(3-(2-(piperidine-3-amino)-5-(trifluoromethyl)pyrimidin-4-yl)-1H-pyrrolo[2,3-b]pyridin-6-yl)piperidin-4-ol] | 783 | 19.9 | 13.1 | 2610 | 8.8 | 4310 | – | –
CC1COCCC1c1ccc2c(-c3nc(N[C@H]4CCCNC4)ncc3C(F)(F)F)c[nH]c2n1 (stereo partly drawn) [Compound 110, 4-(6-(3-methyltetrahydropyran-4-yl)-1H-pyrrol[2,3-b]pyridin-3-yl)-N—((S)-piperidin-3-yl)-5-(trifluoromethyl)pyrimidine-2-amine formate] | 1610 | 38.6 | 3.48 | 4260 | 38.6 | 2180 | – | –
FC(F)(F)c1cnc(N[C@H]2CCCNC2)nc1-c1c[nH]c2nc(C34CCOCC3C4)ccc12 (stereo partly drawn) [Compound 31, 4-(6-(3-oxabicyclo[4.1.0]heptan-6-yl)-1H-pyrrolo[2,3-b]pyridin-3-yl)-N—((S)-piperidin-3-yl)-5-(trifluoromethyl)pyrimidine-2-amine formate] | 517 | 5.8 | 8.13 | 1480 | 4.1 | 968 | – | –
FC(F)(F)c1cnc(N[C@H]2CCCNC2)nc1-c1c[nH]c2nc(C3CCOC3)ccc12 (single isomer, unassigned) [Compound 108] | 512 | – | 4.36 | 1410 | – | 947 | 3.8 | 3.9
FC(F)(F)c1cnc(N[C@H]2CCCNC2)nc1-c1c[nH]c2nc(N3CCCC4(CCOC4)C3)ccc12 (stereo partly drawn) [Compound 7, 4-(6-(2-oxa-7-azaspiro[4.5]decan-7-yl)-1H-pyrrolo[2,3-b]pyridin-3-yl)-N—((S)-piperidin-3-yl)-5-(trifluoromethyl)pyrimidine-2-amine] | 2060 | 28 | 24.3 | 3250 | 21.9 | 4500 | – | –
CC1(O)CCN(c2ccc3c(-c4nc(N[C@H]5CCCNC5)ncc4C(F)(F)F)c[nH]c3n2)C1 (stereo partly drawn) [Compound 6, 3-methyl-1-(3-(2-(((S)-piperidin-3-yl)amino)-5-(trifluoromethyl)pyrimidin-4-yl)-1H-pyrrolo[2,3-b]pyridin-6-yl)pyrrolidin-3-ol] | 1840 | 6.7 | 10.4 | 1040 | 22 | 4380 | – | –
C[C@H]1COCCN1c1ccc2c(-c3nc(N[C@@H]4CNC[C@H](F)C4)ncc3C(F)(F)F)c[nH]c2n1 [Compound 74] | 12000 | – | 10.2 | > 50000 | – | 27300 | 199 | 177
FC(F)(F)c1cnc(N[C@H]2CCCNC2)nc1-c1c[nH]c2nc(C3CCCCO3)ccc12 (stereo partly drawn) [Compound 113] | – | – | 4.76 | – | – | – | – | –
C[C@H]1CC[C@H](Nc2ncc(C(F)(F)F)c(-c3c[nH]c4nc(N5CCOC[C@@H]5C)ccc34)n2)CN1 [Compound 69, 4-(6-((S)-3-methylmorpholine)-1H-pyrrol[2,3-b]pyridin-3-yl)-N-((3S,6S)-6-methylpiperidin-3-yl)-5-(trifluoromethyl)pyrimidine-2-amine] | 49100 | – | 28.4 | > 50000 | – | 47100 | 642 | –
FC(F)(F)c1cnc(N[C@@H]2CCCNC2)nc1-c1c[nH]c2nc(C3CCCCO3)ccc12 (stereo partly drawn) [Compound 112] | – | – | 5.82 | – | – | – | – | –
FC(F)(F)c1cnc(N[C@@H]2[C@@H]3CC[C@H]2NC3)nc1-c1c[nH]c2nc(N3CCOCC3)ccc12 [Compound 43, (1R,4R,7R)—N-(4-(6-morpholinyl-1H-pyrrol[2,3-b]pyridin-3-yl)-5-(trifluoromethyl)pyrimidin-2-yl)-2-azabicyclo[2.2.1]heptan-7-amine formate] | > 10000 | 6070 | 82.9 | > 10000 | – | > 10000 | – | –
